Laboratory results taken from patent US5187086A, “Molecules with antibody combining sites that catalyze hydrolysis reactions through use of a charged hapten” (Scripps Clinic and Research Foundation, priority 1991, dated 1993).

Key:
Type in all cases: biochemical, mouse (129G1X)
[1] = test system: monoclonal receptor (antibody) 27A6 (hybridoma 27A6, ATCC HB 10621), IgG induced by hapten Compound 5a; test: Chemical modification of antibody 27A6, then assay of catalytic (esterolytic) activity by HPLC
Description: The esterolytic activity of monoclonal receptor 27A6 was unaffected by treatment with diethyl pyrocarbonate or maleic anhydride in fifty-fold molar excess to protein.
(a) Phenylglyoxal; a 50 μl aliquot of a phenylglyoxal solution (6 mM), (125 mM NaHCO3, pH 7.5) was added to buffer 195 μl (125 mM, pH 7.5 NaHCO3), containing antibody (20 μM). The mixture was vortexed and left to stand for one hour at room temperature. This reaction mixture was then transferred to a microdialyzer (Pierce) and dialyzed with 125 mM, pH 7.5 NaHCO3 with a flow through of approximately 150 ml/hour for two hours. The microdialyzer was then flushed with 4×60 ml portions of pH 8.4, 50 mM CHES, 100 mM NaCl and left to stand in this buffer overnight (about 15-18 hours). The microdialyzer was again flushed 3×50 ml portions of pH 8.4, 50 mM CHES, 100 mM NaCl the next morning. Samples were removed, protein concentrations recalculated (BCA) and assays run for catalytic activity (HPLC) or binding (ELISA). A similar procedure was used with hapten present (200 μM).
(b) Maleic anhydride; a […] aliquot of a maleic anhydride solution (0.06 M, dioxane) was added to 299 μl of 20 mM, pH 8.9 borate, 100 mM NaCl containing 20 μM of antibody. The solution was vortexed and left to stand at room temperature for one hour. This reaction mixture was then transferred to a microdialyzer and dialyzed as described above with 50 mM CHES, pH 8.4, 100 mM NaCl. Samples were removed, protein concentrations calculated (BCA), and assays run for catalytic activity or binding.
(c) Diethyl pyrocarbonate; 10 μl of a 0.6 M diethylpyrocarbonate solution in ethanol was diluted into 1 ml of sodium acetate (NaOAc) (150 mM, pH 6, 100 mM NaCl). Five microliters of that solution were added to 299 μl of NaOAc (150 mM, pH 6.0, 100 mM NaCl) containing 20 µM of antibody. The mixture was vortexed and left to stand at 4° degrees C. overnight (about 15-18 hours). This reaction mixture was then transferred to a microdialyzer and dialyzed as described above with CHES (50 mM, pH 8.4, 100 mM NaCl). Samples were removed, protein concentrations determined (BCA) and assays performed for catalytic activity and binding.

[2] = target: monoclonal receptor (antibody) 27A6 (hybridoma 27A6, ATCC HB 10621), IgG induced by hapten Compound 5a; test: Hydrolysis of benzoate ester Compound 3 catalyzed by monoclonal receptor 27A6 (HPLC assay, Michaelis-Menten kinetics)
Description: That monoclonal receptor is also referred to as receptor or antibody 27A6.
Purified monoclonal antibodies were dialyzed against EPPS buffer (I mM, pH 8.0, 100 mM NaCl) or CHES buffer (1 mM, pH 8.0, 100 mM NaCl). Its protein concentration was determined by the BCA method (Pierce). Assays were performed by HPLC (reverse-phase column, C18, VYDAC 201Tp54) with C3 CN/H2 O (0.1 percent TFA) on an isocratic program of 10/90. An internal standard of o-acetamidophenol was used to calculate the amount of product formed [4-(carboxybutyramido)phenol].
Reactions contained 5 percent cosolvent dioxane, and the temperature was maintained at 37°±0.1°degrees C. Initial linear rates were measured at<5 percent hydrolysis of the total substrate. […] Kinetic parameters Vmax Km were determined by nonlinear least-squares fitting of the initial rate vs. substrate concentration to a hyperbolic curve described by the Michaelis-Menten equation.

[3] = test system: the three catalytic monoclonal antibodies obtained to hapten Compound 5a; test: HPLC screen of hydrolysis of Compound 3 by catalytic antibodies, inhibition by free hapten; details: 50 μM inhibitor; antibody 20 μM, Compound 3 500 μM, phosphate 50 mM, pH 7.5, 100 mM NaCl, 37 degrees C
Description: Antibodies at a concentration of 20μM were initially screened (phosphate buffer, 50 mM, pH 7.5, 100 mM NaCl, 37° degrees C.) via an HPLC assay against benzoate ester Compound 3, (500 μM) for the production of 5-[(4-hydroxyphenyl)aming]-5-oxopentanoic acid, Compound 4.

[4] = test system: monoclonal antibody 30C6 (hybridoma 30C6, ATCC HB 10341), IgG induced by haptenic ligand Compound 1a; test: Hydrolysis of benzoate ester Compound 3 catalyzed by monoclonal antibody 30C6 (HPLC assay, Michaelis-Menten kinetics)
Description: Monoclonal antibodies at a concentration of 20 μM were initially screened (phosphate buffer 50 mM, pH 7.5, 100 mM NaCl, 37° degrees C.) against benzoate ester reactant ligand Compound 3, ([…]) for the production of 5-[[4-(hydroxy)phenyl]aming]-5-oxo-pentanoic acid, Compound 4. [Analysis was performed via HPLC on an RP-C18 column eluting with water: acetonitrile (op:10) at a flow of 1 ml/min with UV detector set to 254 nm. The hydrolysis product, Compound 4 (FIG. 1; retention time 7 minutes) was collected (recovered) an found to be identical by RP-HPLC coinjection and mass spectral analysis with an authentic sample.]
The pH dependence of the hydrolysis of substrate Compound 3 was examined in the presence of monoclonal antibodies 30C6 (20 μM) between pH 6.0 and 7.2 (Bis-tris) and 7.2-8.0 (phosphate), both at 50 mM buffer and 100 mM NaCl, 37° degrees C. (FIG. 2).

[5] = treatment with reagent in fifty-fold molar excess to protein
[6] = hydrolysis of Compound 3, 50 mM phosphate, 100 mM NaCl, pH 7.2, 37 degrees C, antibody 20 μM

For `CCOC(=O)OC(=O)OCC` [diethyl pyrocarbonate], the “esterolytic activity after treatment” value [1, 5] was “unaffected”.

For `O=CC(=O)c1ccccc1` [phenylglyoxal], the “loss of catalytic activity in the presence of inhibitor Compound 5b” value ([1]; reagent in fifty-fold molar excess, Compound 5b five-fold molar excess to protein) was 35% and the “loss of catalytic activity” value [1, 5] was 75%.

In the case of `Nc1ccc(CC(O)c2ccccc2C(=O)O)cc1` (stereo not shown) [Compound 5b], the Ki ([2]; competitive inhibitor, substrate Compound 3, read-out: K (competitive inhibition of the antibody-catalyzed hydrolysis of Compound 3)) is reported as 6 ± 2 µM and the inhibition of catalysis [3] is reported as “completely inhibited”.

For `O=C1C=CC(=O)O1` [maleic anhydride], the “esterolytic activity after treatment” value [1, 5] was “unaffected”.

`O=C(O)CCCC(=O)Nc1ccc(OC(=O)c2ccccc2)cc1` [Compound 3] was tested, and the “Kcat^app” value [4, 6] was 5±0.2×10^-3 min^-1, the Km [4, 6] was 1120 ± 50 µM and the “ratio of kcat/ko (rate acceleration by the antibody over hydrolysis in water)” value ([4]; pH independent antibody-catalyzed rate vs hydrolysis of Compound 3 in water) was “over a million fold”. The “Kcat^app” value ([2]; hydrolysis of Compound 3, 50 mM EPPS, 100 mM NaCl, pH 8.5, 37 degrees C) was 0.00017 ± 3.3e-05 s⁻¹.
